The values below come from US12172993B2 (priority 2018, dated 2024).

Converted amounts (≈) assume the structure as drawn. Where two headings read alike, the source gives them in different places.

One data set relates to M579-A2-luc. The data set is classed as cell-based.
The next data set has as its target SRC (GST-HIS-tag) (Homo sapiens (Human), UniProt P12931). The data set is classed as biochemical.
The conditions of data set [1]: human, microsomes.
The next data set can be described thus: physchem. The data set is classed as physicochemical.
Data set [2] is described as follows: in vitro. Conditions: human, microsomes.
The target in a further data set is ABL1 wt (Homo sapiens (Human), UniProt P00519). Type of data set: biochemical.
Another data set deals with SIK1 (Homo sapiens (Human), UniProt P57059). Type of data set: biochemical.
The next data set addresses SIK2 (Homo sapiens (Human), UniProt Q9H0K1). The data set is classed as biochemical.
Data set [3] can be described thus: in vitro. Conditions: mouse, microsomes.
For data set [4] the following is noted: mouse, microsomes.
The target of data set [5] is T1, SIK3 (Homo sapiens (Human), UniProt Q9Y2K2).
Another data set deals with MC38 cells. The data set is described as follows: cells. The following applies: Mus musculus, MC-38, 72 h, read-out: MC38 IC50 (nM at 100 ng/mL TNF).
A short description of a further data set: in vivo. Conditions: CD1, mouse, plasma, oral, 30 mg/kg; read-out: Free concentration (nM) at timepoint after 30 mg/kg po.
Data set [6] has as its target T1, SIK3. In words: biochemical.
In the next data set the test system is NFKB activity. The following applies: PANC-1 reporter cells, 10 ng/ml rHuTNF.
The next data set concerns HDAC4 phosphorylation. The following applies: PANC-1 cells, 10 ng/mL rHuTNF, 3 h.

ABL1 wt, sequence (P00519 118-535 limits assumed): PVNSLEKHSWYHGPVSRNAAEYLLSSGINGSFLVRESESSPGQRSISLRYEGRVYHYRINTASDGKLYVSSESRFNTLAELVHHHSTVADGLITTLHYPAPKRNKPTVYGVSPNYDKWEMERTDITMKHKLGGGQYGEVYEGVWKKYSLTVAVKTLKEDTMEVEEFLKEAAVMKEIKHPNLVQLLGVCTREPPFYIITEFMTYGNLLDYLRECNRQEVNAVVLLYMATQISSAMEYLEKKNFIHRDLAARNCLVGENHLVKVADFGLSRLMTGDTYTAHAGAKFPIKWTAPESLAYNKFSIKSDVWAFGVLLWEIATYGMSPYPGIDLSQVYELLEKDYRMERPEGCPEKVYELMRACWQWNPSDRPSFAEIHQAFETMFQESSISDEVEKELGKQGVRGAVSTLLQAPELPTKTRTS

With `Cc1nc(Nc2ncc(C(=O)Nc3c(Cl)cccc3Br)s2)cc(N2CCN(CCO)CC2)n1` [Compound B1, N-(2-bromo-6-chlorophenyl)-2-((6-(4-(2-hydroxyethyl)piperazin-l-yl)-2-methylpyrimidin-4-yl)amino)thiazole-5-carboxamide], the “cytotoxicity in the presence of TNF (10 ng/mL) compared to inhibitor alone” value (from here on “cytotoxicity … compared to inhibitor alone”) in the data set on M579-A2-luc is recorded as “increased cytotoxicity”.

Consider `COc1c(F)cccc1NC(=O)c1cnc(Nc2cc(N3CCN(CCO)CC3)nc(C)n2)s1` [Compound B4, N-(3-fluoro-2-methoxyphenyl)-2-((6-(4-(2-hydroxyethyl)piperazin-l-yl)-2-methylpyrimidin-4-yl)amino)thiazole-5-carboxamide], for which the “cytotoxicity … compared to inhibitor alone” value with M579-A2-luc is recorded as “fails to exhibit cytotoxicity”.

In the case of `CCOc1cccc(Cl)c1NC(=O)c1cnc(Nc2cc(N3CCN(CCO)CC3)nc(C)n2)s1` [Compound B8, N-(2-chloro-6-ethoxyphenyl)-2-((6-(4-(2-hydroxyethyl)piperazin-l-yl)-2-methylpyrimidin-4-yl)amino)thiazole-5-carboxamide], the “cytotoxicity … compared to inhibitor alone” value in the data set with M579-A2-luc was “fails to exhibit cytotoxicity”.

On to `Cc1nc(Nc2ncc(C(=O)Nc3c(C)ccnc3C)s2)cc(N2CCN(CCO)CC2)n1` [Compound C1, N-(2,4-dimethylpyridin-3-yl)-2-((6-(4-(2-hydroxyethyl)piperazin-1-yl)-2-methylpyrimidin-4-yl)amino)thiazole-5-carboxamide], for which, at SRC (GST-HIS-tag), the IC50 is under 1.5 nM.

Consider `Cc1nc(Nc2ncc(C(=O)Nc3ncccc3C)s2)cc(N2CCN(CCO)CC2)n1` [Compound C2, 2-((6-(4-(2-hydroxyethyl)piperazin-1-yl)-2-methylpyrimidin-4-yl)amino)-N-(3-methylpyridin-2-yl)thiazole-5-carboxamide], for which the figures for the Intrinsic clearance (L/min/mg) in [1] and in data set [4] were under 17 µL/min/mg and 35 µL/min/mg, respectively. For the same molecule, the “% Remaining at 40 min (%)” value in [1] is reported as 69%; in [4], 48%. The kinetic solubility in the data set “physchem” is 160 µM (≈ 72.7 µg/mL); in the data set “physchem” (kinetic from dmso stock) it was 128 to 195 µM (≈ 58.2 to 88.6 µg/mL). Moreover, the IC50 against SRC (GST-HIS-tag) was under 1.5 nM; against ABL1 wt, 14.4 nM; against SIK1 it was 177 nM; against SIK2 it was 427 nM. Besides, the half-life was over 1.43 h in “in vitro [2]” and 0.667 h in “in vitro [3]”. Besides, the “Percentage unbound (%)” value in the data set on human plasma-proteins came out at 9%; in the data set on murine plasma-proteins, 30%.

For `Cc1nc(Nc2ncc(C(=O)Nc3c(C)cncc3Cl)s2)cc(N2CCN(CCO)CC2)n1` [Compound C4, N-(3-chloro-5-methylpyridin-4-yl)-2-((6-(4-(2-hydroxyethyl)piperazin-1-yl)-2-methylpyrimidin-4-yl)amino)thiazole-5-carboxamide], the figures for the Intrinsic clearance (L/min/mg) in data set [1] and in data set [4] were 115 µL/min/mg and 38 µL/min/mg, respectively. The “% Remaining at 40 min (%)” value in data set [1] was 10%; in data set [4], 45%. This molecule also showed a solubility (kinetic) in “physchem” (kinetic from dmso stock) of 128 µM (≈ 62.6 µg/mL). This molecule displayed an IC50 against SRC (GST-HIS-tag) of under 1.5 nM. Besides, the “Percentage unbound (%)” value with human plasma-proteins is listed as 2%; in the data set with murine plasma-proteins, 14%.

As to `Cc1nc(Nc2ncc(C(=O)Nc3c(C)cncc3C)s2)cc(N2CCN(CCO)CC2)n1` [Compound C5, N-(3,5-dimethylpyridin-4-yl)-2-((6-(4-(2-hydroxyethyl)piperazin-1-yl)-2-methylpyrimidin-4-yl)amino)thiazole-5-carboxamide], the IC50 against SRC (GST-HIS-tag) was under 1.5 nM.

Molecule `Cc1nc(Nc2ncc(C(=O)Nc3cccnc3C)s2)cc(N2CCN(CCO)CC2)n1` [Compound C6, 2-((6-(4-(2-hydroxyethyl)piperazin-1-yl)-2-methylpyrimidin-4-yl)amino)-N-(2-methylpyridin-3-yl)thiazole-5-carboxamide] came in with an IC50 at SRC (GST-HIS-tag) of under 1.5 nM.

In the case of `Cc1nc(Nc2ncc(C(=O)Nc3c(C)nn(C)c3C)s2)cc(N2CCN(CCO)CC2)n1` [Compound C8, 2-((6-(4-(2-hydroxyethyl)piperazin-1-yl)-2-methylpyrimidin-4-yl)amino)-N-(1,3,5-trimethyl-1H-pyrazol-4-yl)thiazole-5-carboxamide], the Intrinsic clearance (L/min/mg) in [1] and in data set [4] was under 14 µL/min/mg in each case. In addition, the entries for the “% Remaining at 40 min (%)” value in data set [1] and in [4] were 81% and 86%, respectively. This molecule also yielded a kinetic solubility in the data set “physchem” (kinetic from dmso stock) of 128 to 195 µM (≈ 60.4 to 92 µg/mL). The “Percentage unbound (%)” value with human plasma-proteins was 5%; with murine plasma-proteins, 62%.

Turning to `Cc1nc(Nc2ncc(C(=O)Nc3c(C)noc3C)s2)cc(N2CCN(CCO)CC2)n1` [Compound C9], the IC50 against SIK3 [5] stood at 800 nM; on SRC (GST-HIS-tag), 6.44 nM; on ABL1 wt, 27.4 nM; against SIK1 it was 169 nM; against SIK2, 232 nM. Also, the Intrinsic clearance (L/min/mg) in [1] and in data set [4] was under 14 µL/min/mg throughout. For the same molecule, the “% Remaining at 40 min (%)” value in [1] amounted to 89%; in [4] it was 83%. Besides, the values for the solubility (kinetic) in the data set “physchem” and in “physchem” (kinetic from dmso stock) were 174 µM (≈ 79.8 µg/mL) and 128 to 195 µM (≈ 58.7 to 89.4 µg/mL), respectively. The half-life in “in vitro [2]” and in the data set “in vitro [3]” was over 1.67 h throughout. For the same molecule, the “Percentage unbound (%)” value in the data set with human plasma-proteins was found to be 6%; in the data set on murine plasma-proteins, 44%.

As to `Cc1nc(Nc2ncc(C(=O)Nc3c(Cl)ccnc3C)s2)cc(N2CCN(C)CC2)n1` [Compound C10], the IC50 on SIK3 [5] is 493 nM; on SRC (GST-HIS-tag) it was under 1.5 nM; at ABL1 wt, 4.3 nM; against SIK2 it was 138 nM.

On SRC (GST-HIS-tag), `Cc1nc(NCCO)cc(Nc2ncc(C(=O)Nc3c(Cl)ccnc3C)s2)n1` [Compound C11, N-(4-chloro-2-methylpyridin-3-yl)-2-((6-((2-hydroxyethyl)amino)-2-methylpyrimidin-4-yl)amino)thiazole-5-carboxamide] came in with an IC50 of under 1.5 nM.

Consider `Cc1nc(Nc2ncc(C(=O)Nc3c(Cl)csc3C)s2)cc(N2CCN(CCO)CC2)n1` [Compound D1, N-(4-chloro-2-methylthiophen-3-yl)-2-((6-(4-(2-hydroxyethyl)piperazin-1-y1)-2-methylpyrimidin-4-yl)amino)thiazole-5-carboxamidexs], for which the IC50 in the data set with MC38 cells was under 200 nM. Further, in “in vivo”, the concentration at 2 h amounted to 80 nM, the concentration at 6 h came out at 4 nM and the concentration at 12 h was 2.14 nM. This molecule also displayed an IC50 against SIK3 [6] of 40 to 45 nM.

In the case of `Cc1nc(Nc2ncc(C(=O)Nc3c(Cl)csc3Cl)s2)cc(N2CCN(CCO)CC2)n1` [Compound D7, N-(2,4-dichlorothiophen-3-yl)-2-((6-(4-(2-hydroxyethyl)piperazin-1-yl)-2-methylpyrimidin-4-yl)amino)thiazole-5-carboxamide], the IC50 in the data set with MC38 cells is under 200 nM. Moreover, in “in vivo”, the concentration at 2 h stood at 43 nM, the concentration at 6 h worked out at 5 nM and the concentration at 12 h is 1.1 nM. For the same molecule, the IC50 against SIK3 [6] lay in the range of 15 to 20 nM.

Take `CC(=O)N1CCN(c2cc(Nc3ncc(C(=O)Nc4c(C)csc4Cl)s3)nc(C)n2)CC1` [Compound D8, 2-((6-(4-acetylpiperazin-1-yl)-2-methylpyrimidin-4-yl)amino)-N-(2-chloro-4-methylthiophen-3-yl)thiazole-5-carboxamide]: the IC50 at SIK3 [5] is about 150 nM; in the data set on MC38 cells, over 200 nM.

As to `Cc1nc(Nc2ncc(C(=O)Nc3c(C)csc3Cl)s2)cc(N2CCN(C)CC2)n1` [Compound D9, N-(2-chloro-4-methylthiophen-3-yl)-2-((2-methyl-6-(4-methylpiperazin-1-yl)pyrimidin-4-yl)amino)thiazole-5-carboxamide], on SIK3 [5], the IC50 is about 60 nM. Also, in the data set on MC38 cells, the IC50 was under 100 nM. In addition, in “in vivo”, the concentration at 2 h was determined as 44 nM, the concentration at 6 h is 8 nM and the concentration at 12 h stood at 2.71 nM. For the same molecule, the “Inhibition of NFKB activity” value with NFKB activity is reported as “+”. In addition, the “Inhibition of HDAC4 phosphorylation” value with HDAC4 phosphorylation is “+”.
